# Test results: patent US8466155B2, “Pyrimidines” (Boehringer Ingelheim International GmbH, priority 2009, dated 2013)
# Biological target: T1, PTK2 (Homo sapiens, UniProt Q05397)
# T1 construct: purchased Invitrogen PV3832
# Assay: PTK2 enzyme test, Assay 1 (DELFIA, PT60 antibody)
# Assay type: biochemical
# Conditions: 1 h pre-incubation, 1 h kinase reaction, values without *
# Description: This test uses active PTK2 enzyme (Invitrogen Code PV3832) and poly-Glu-Tyr (4:1, Sigma P-0275) as the kinase substrate. The kinase activity is detected through the phosphorylation of the substrate in a DELFIA™ assay. The phosphorylated substrate is detected with the europium-labelled phosphotyrosine antibody PT60 (Perkin Elmer, No.: AD00400).
# In order to determine concentration-activity curves with PTK2-inhibitors the compounds are serially diluted in 10% DMSO/H20 and 10 μL of each dilution are placed in each well of a 96-well microtitre plate (clear plate with a U-shaped base, Greiner No. 650101) (the inhibitors are tested in duplicates) and mixed with 10 μL/well of PTK2 kinase (0.01 μg/well). PTK2 kinase has been correspondingly diluted beforehand with kinase dilution buffer (20 mM TRIS/HCl pH 7.5, 0.1 mM EDTA, 0.1 mM EGTA, 0.286 mM sodium orthovanadate, 10% glycerol with the addition of freshly prepared BSA (fraction V, 1 mg/mL) and DTT (1 mM)). The test compound and the PTK2 kinase are pre-incubated for 1 h at RT and shaken at 500 revolutions per min. The reaction is started by the addition of 10 μL/well poly (Glu,Tyr) substrate (25 μg/well poly (Glu, Tyr), 0.05 μg/well biotinylated poly (Glu,Tyr) dissolved in 250 mM TRIS/HCl pH 7.5, 9 mM DTT)—the final concentration of DMSO is 2%. Then 20 μL of ATP Mix (30 mM TRIS/HCl pH 7.5, 0.02% Brij, 0.2 mM sodium orthovanadate, 10 mM magnesium acetate, 0.1 mM EGTA, 1× phosphatase inhibitor cocktail 1 (Sigma, No.: P2850), 50 μM ATP (Sigma, No.: A3377; 15 mM stock solution)) are added. After 1 h of kinase reaction (the plates are shaken at 500 rpm), the reaction is stopped by the addition of 12 μL/well 100 mM EDTA, pH 8.0 and shaken for a further 5 min at RT (500 rpm). 55 μL of the reaction mixture are transferred into a streptavidin plate (Strepta Well High Bind (transparent, 96-well) made by Roche, No.: 11989685001) and incubated for 1 h at RT (shaking at 500 rpm). Then the microtitre plate is washed three times with 200 μL/well D-PBS (Invitrogen, No. 14190). 100 μL of a solution containing DELFIA Eu-N1 Anti-Phosphotyrosine PT60 antibody (Perkin Elmer, No.: AD0040, diluted 1:2000 in DELFIA test buffer (Perkin Elmer, No.: 1244-111)) is then added and the mixture is incubated for 1 h at RT (shaking at 500 rpm). Then the plate is washed three times with 200 μL/well DELFIA washing buffer (Perkin Elmer, No.: 1244-114), 200 μL/well strengthening solution (Perkin Elmer, No.: 1244-105) are added and the mixture is incubated for 10 min at RT (shaking at 300 rpm).
# The time-delayed europium fluorescence is then measured in a microtitre plate reader (VICTOR^3, Perkin Elmer). […] Wells that contain test buffer instead of enzyme are used as a control of the background kinase activity.
# The IC50 values are determined from analyses of the concentration activity by iterative calculation with the aid of a sigmoid curve analysis algorithm (FIFTY, based on GraphPAD Prism Version 3.03) with a variable Hill coefficient.
# T1 sequence (Q05397 whole entry): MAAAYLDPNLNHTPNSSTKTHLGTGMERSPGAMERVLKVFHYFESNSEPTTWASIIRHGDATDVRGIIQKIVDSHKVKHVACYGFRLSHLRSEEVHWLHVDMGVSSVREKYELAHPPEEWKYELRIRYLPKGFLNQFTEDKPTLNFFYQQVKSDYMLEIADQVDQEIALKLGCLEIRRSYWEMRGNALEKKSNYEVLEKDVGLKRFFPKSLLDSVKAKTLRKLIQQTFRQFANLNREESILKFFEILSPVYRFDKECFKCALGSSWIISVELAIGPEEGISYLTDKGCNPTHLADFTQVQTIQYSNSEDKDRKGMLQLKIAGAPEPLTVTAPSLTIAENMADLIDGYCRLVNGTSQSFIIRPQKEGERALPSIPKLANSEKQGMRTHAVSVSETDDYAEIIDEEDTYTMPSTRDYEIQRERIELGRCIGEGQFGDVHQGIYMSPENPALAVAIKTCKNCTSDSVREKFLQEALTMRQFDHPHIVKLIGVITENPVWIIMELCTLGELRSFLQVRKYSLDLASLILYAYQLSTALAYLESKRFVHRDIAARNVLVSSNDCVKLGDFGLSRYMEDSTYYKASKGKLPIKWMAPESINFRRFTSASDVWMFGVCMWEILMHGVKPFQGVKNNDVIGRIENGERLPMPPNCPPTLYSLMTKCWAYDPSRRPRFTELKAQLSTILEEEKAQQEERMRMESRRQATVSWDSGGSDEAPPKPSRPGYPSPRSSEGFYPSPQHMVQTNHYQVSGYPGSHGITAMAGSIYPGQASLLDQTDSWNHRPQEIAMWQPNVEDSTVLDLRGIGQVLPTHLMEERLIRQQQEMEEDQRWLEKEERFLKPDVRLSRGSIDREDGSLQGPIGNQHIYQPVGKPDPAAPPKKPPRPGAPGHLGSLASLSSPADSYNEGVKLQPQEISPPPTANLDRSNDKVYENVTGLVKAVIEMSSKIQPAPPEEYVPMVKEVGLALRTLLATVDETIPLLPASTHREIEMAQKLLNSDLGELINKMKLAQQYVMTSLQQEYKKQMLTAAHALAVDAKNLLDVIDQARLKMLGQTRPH
row,Structure (SMILES),IC50 [nM]
1,"COc1cc(C(=O)NC2CCN(C)CC2)c(F)cc1Nc1ncc(C(F)(F)F)c(O[C@@H]2CCC[C@H]2NS(C)(=O)=O)n1 [Example 28, 2-fluoro-4-[4-((1R,2R)-2-methanesulphonylamino-cyclopentyloxy)-5-trifluoromethyl-pyrimidin-2-ylamino]-5-methoxy-N-(1-methyl-piperidin-4-yl)-benzamide]",2
2,COc1cc(C(=O)NCCCN(C)C)ccc1Nc1ncc(C(F)(F)F)c(O[C@@H]2Cc3ccccc3[C@H]2N(C)S(C)(=O)=O)n1 [Example 20],3
3,"COc1cc(C(=O)NC2CCN(C)CC2)c(F)cc1Nc1ncc(C(F)(F)F)c(O[C@@H]2Cc3ccccc3[C@H]2NS(C)(=O)=O)n1 [Example 24, 2-fluoro-4-[4-((1R,2R)-1-methanesulphonylamino-indan-2-yloxy)-5-trifluoromethyl-pyrimidin-2-ylamino]-5-methoxy-N-(1-methyl-piperidin-4-yl)-benzamide]",1
4,COc1cc(C(=O)NCCN(C)C)ccc1Nc1ncc(C(F)(F)F)c(O[C@@H]2Cc3ccccc3[C@H]2NS(C)(=O)=O)n1 [Example 95],0.56
5,"COc1cc(C(=O)NC2CCN(C)CC2)c(F)cc1Nc1ncc(C(F)(F)F)c(O[C@@H]2Cc3ccccc3[C@H]2N(C)S(C)(=O)=O)n1 [Example 25, 2-fluoro-4-{4-[(1R,2R)-1-(methanesulphonyl-methyl-amino)-indan-2-yloxy]-5-trifluoromethyl-pyrimidin-2-ylamino}-5-methoxy-N-(1-methyl-piperidin-4-yl)-benzamide]",2
6,COc1cc(C(=O)NCCN(C)C)c(F)cc1Nc1ncc(C(F)(F)F)c(O[C@@H]2CCCC[C@H]2NS(C)(=O)=O)n1 [Example 106],1
7,COc1cc(C(=O)NN2CCN(C)CC2)ccc1Nc1ncc(C(F)(F)F)c(O[C@@H]2Cc3ccccc3[C@H]2N(C)S(C)(=O)=O)n1 [Example 19],4
8,"COc1cc(C(=O)NC2CCN(C)CC2)c(F)cc1Nc1ncc(C(F)(F)F)c(O[C@@H]2CCC[C@H]2N(C)S(C)(=O)=O)n1 [Example 103, 2-fluoro-4-{4-[(1R,2R)-2-(methanesulphonyl-methyl-amino)-cyclopentyloxy]-5-trifluoromethyl-pyrimidin-2-ylamino}-5-methoxy-N-(1-methyl-piperidin-4-yl)-benzamide]",0.28
9,COc1cc(C(=O)NCCN(C)C)c(Cl)cc1Nc1ncc(C(F)(F)F)c(O[C@@H]2CCCC[C@H]2NS(C)(=O)=O)n1 [Example 108],0.44
10,COc1cc(C(=O)NCCn2ccnc2C)c(F)cc1Nc1ncc(C(F)(F)F)c(O[C@@H]2Cc3ccccc3[C@H]2N(C)S(C)(=O)=O)n1 [Example 4],5
11,COc1cc(C(=O)NC[C@H](O)CO)ccc1Nc1ncc(C(F)(F)F)c(O[C@@H]2Cc3ccccc3[C@H]2N(C)S(C)(=O)=O)n1 [Example 49],5
12,COc1cc(C(=O)N[C@H]2CC[C@H](O)CC2)ccc1Nc1ncc(C(F)(F)F)c(O[C@@H]2Cc3ccccc3[C@H]2N(C)S(C)(=O)=O)n1 [Example 22],8
13,COc1cc(C(=O)NC2CCN(C)CC2)ccc1Nc1ncc(C(F)(F)F)c(O[C@@H]2CCCC[C@H]2N(C)S(C)(=O)=O)n1 [Example 76],0.29
14,"COc1cc(C(=O)N[C@H]2CCN(C)C[C@@H]2OC)c(F)cc1Nc1ncc(C(F)(F)F)c(O[C@@H]2Cc3ccccc3[C@H]2N(C)S(C)(=O)=O)n1 [Example 31, 2-fluoro-4-{4-[(1R,2R)-1-(methanesulphonyl-methyl-amino)-indan-2-yloxy]-5-trifluoromethyl-pyrimidin-2-ylamino}-5-methoxy-N-((3S,4S)-3-methoxy-1-methyl-piperidin-4-yl)-benzamide]",3
15,"COc1cc(C(=O)NN2CCN(C)CC2)c(F)cc1Nc1ncc(C(F)(F)F)c(O[C@@H]2CCC[C@H]2N(C)S(C)(=O)=O)n1 [Example 101, 2-fluoro-4-{4-[(1R,2R)-2-(methanesulphonyl-methyl-amino)-cyclopentyloxy]-5-trifluoromethyl-pyrimidin-2-ylamino}-5-methoxy-N-(4-methyl-piperazin-1-yl)-benzamide]",0.3
16,COc1ccc(C(=O)NN2CCN(C)CC2)cc1Nc1ncc(C(F)(F)F)c(O[C@@H]2Cc3ccccc3[C@H]2N(C)S(C)(=O)=O)n1 [Example 80],0.41
17,COc1cc(C(=O)NCCN(C)C)c(Cl)cc1Nc1ncc(C(F)(F)F)c(O[C@@H]2CCCC[C@H]2N(C)S(C)(=O)=O)n1 [Example 109],0.35
18,"COc1cc(C(=O)N[C@H]2CCN(C)C[C@@H]2OC)ccc1Nc1ncc(C(F)(F)F)c(O[C@@H]2Cc3ccccc3[C@H]2N(C)S(C)(=O)=O)n1 [Example 29, 4-{4-[(1R,2R)-1-(methanesulphonyl-methyl-amino)-indan-2-yloxy]-5-trifluoromethyl-pyrimidin-2-ylamino}-3-methoxy-N-((3S,4S)-3-methoxy-1-methyl-piperidin-4-yl)-benzamide]",3
19,"COc1cc(C(=O)NN2CCN(C)CC2)ccc1Nc1ncc(C(F)(F)F)c(O[C@@H]2CCCC[C@H]2N(C)S(C)(=O)=O)n1 [Example 77, 4-{4-[(1R,2R)-2-(methanesulphonyl-methyl-amino)-cyclohexyloxy]-5-trifluoromethyl-pyrimidin-2-ylamino}-3-methoxy-N-(4-methyl-piperazin-1-yl)-benzamide]",0.3
20,COc1cc(NC(=O)C2CCCN(C)C2)ccc1Nc1ncc(C(F)(F)F)c(O[C@@H]2Cc3ccccc3[C@H]2N(C)S(C)(=O)=O)n1 (some centres unmarked) [Example 92],3
21,COc1cc(C(=O)NC2CCN(C)CC2)c(F)cc1Nc1ncc(C(F)(F)F)c(O[C@@H]2CCC[C@H]2NS(=O)(=O)C(F)(F)F)n1 [Example 107],103
22,COc1ccc(C(=O)NCCCN(C)C)cc1Nc1ncc(C(F)(F)F)c(O[C@@H]2Cc3ccccc3[C@H]2N(C)S(C)(=O)=O)n1 [Example 82],0.38

# Second part, the compound after the results:
row,IC50 [nM],Structure (SMILES)
1,6,COc1cc(C(=O)NCC(C)(C)C)c(Cl)cc1Nc1ncc(Cl)c(O[C@@H]2Cc3ccccc3[C@H]2N(C)S(C)(=O)=O)n1 [Example 39]
2,4,COc1cc(C(=O)NC[C@@H](O)CO)c(Cl)cc1Nc1ncc(Cl)c(O[C@@H]2Cc3ccccc3[C@H]2N(C)S(C)(=O)=O)n1 [Example 42]
3,92,COc1cc(C(=O)N(C)C)c(F)cc1Nc1ncc(Cl)c(O[C@@H]2Cc3ccccc3[C@H]2N(C)S(C)(=O)=O)n1 [Example 54]
4,1,CONC(=O)c1cc(OC)c(Nc2ncc(Cl)c(O[C@@H]3Cc4ccccc4[C@H]3N(C)S(C)(=O)=O)n2)cc1Cl [Example 38]
5,4,COc1cc(C(=O)NCCN(C)C)c(F)cc1Nc1ncc(Cl)c(O[C@@H]2Cc3ccccc3[C@H]2N(C)S(C)(=O)=O)n1 [Example 53]
6,3,COc1cc(C(=O)NCC(C)(C)C)c(F)cc1Nc1ncc(C(F)(F)F)c(O[C@@H]2Cc3ccccc3[C@H]2N(C)S(C)(=O)=O)n1 [Example 3]
7,6,CONC(=O)c1cc(OC)c(Nc2ncc(C(F)(F)F)c(O[C@@H]3Cc4ccccc4[C@H]3N(C)S(C)(=O)=O)n2)cc1F [Example 1]
8,2,COc1cc(C(=O)NCCn2ccnc2C)c(Cl)cc1Nc1ncc(Cl)c(O[C@@H]2Cc3ccccc3[C@H]2N(C)S(C)(=O)=O)n1 [Example 35]
9,28,COc1cc(C(=O)N(C)C)c(Cl)cc1Nc1ncc(Cl)c(O[C@@H]2Cc3ccccc3[C@H]2N(C)S(C)(=O)=O)n1 [Example 37]
10,6,COc1cc(C(=O)N[C@H]2CC[C@H](O)CC2)c(F)cc1Nc1ncc(Cl)c(O[C@@H]2Cc3ccccc3[C@H]2N(C)S(C)(=O)=O)n1 [Example 55]
